From US20100076015A1, “Aminopyridine Derivatives” (VANTIA LIMITED, priority 2008, published 2010) come the findings set out here.

Molecules are shown by their SMILES.

Usually IC50 stands for the concentration that gives 50% inhibition. The low end stands for inhibition by little substance, the high end for a need for much substance.

T1 sequence (P06870 25-262): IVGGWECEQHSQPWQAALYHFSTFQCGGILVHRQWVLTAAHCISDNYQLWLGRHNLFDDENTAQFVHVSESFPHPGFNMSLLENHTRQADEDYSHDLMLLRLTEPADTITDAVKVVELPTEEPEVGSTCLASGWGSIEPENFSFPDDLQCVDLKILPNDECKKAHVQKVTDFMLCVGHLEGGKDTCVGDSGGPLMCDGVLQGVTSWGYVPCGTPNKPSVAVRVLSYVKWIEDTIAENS

This assay addresses T1, Human KLK1 (Homo sapiens, UniProt P06870).
T1 construct: purchased Callbiochem (Calbiochem)
The experiment in a line: Determination of the IC50 for KLK1 (fluorogenic substrate H-DVal-Leu-Arg-AFC). The assay is classed as biochemical. Conditions: 37° C. The protocol: Determination of the IC50 for KLK1
KLK1 inhibitory activity in vitro was determined using standard published methods (see e.g. Johansen et al., Int. J. Tiss. Reac. 1986, 8, 185; Shori et al., Biochem. Pharmacol., 1992, 43, 1209; Stürzebecher et al., Biol. Chem. Hoppe-Seyler, 1992, 373, 1025). Human KLK1 (Callbiochem) was incubated at 37° C. with the fluorogenic substrate H-DVal-Leu-Arg-AFC and various concentrations of the test compound. Residual enzyme activity (initial rate of reaction) was determined by measuring the change in optical absorbance at 410 nm and the IC50 value for the test compound was determined.
Turning to `Nc1ccc(CNC(=O)[C@H](Cc2ccc(Cl)c(Cl)c2)NC(=O)[C@H]2C=CCN2)cn1` [Example 65, (R)-2,5-Dihydro-1H-pyrrole-2-carboxylic acid [(S)-1-[(6-amino-pyridin-3-ylmethyl)-carbamoyl]-2-(3,4-dichloro-phenyl)-ethyl]-amide], the IC50 amounted to 2.7 nM. `Nc1ccc(CNC(=O)[C@H](Cc2ccc(Cl)c(Cl)c2)NC(=O)[C@H]2CC(F)(F)CN2)cn1` [Example 66, (R)-4,4-Difluoro-pyrrolidine-2-carboxylic acid [(S)-1-[(6-amino-pyridin-3-ylmethyl)-carbamoyl]-2-(3,4-dichloro-phenyl)-ethyl]-amide] displayed an IC50 of 20.7 nM. The result for `Nc1ccc(CNC(=O)[C@H](Cc2ccc(Cl)c(Cl)c2)NC(=O)[C@H](N)CCc2ccccc2)cn1` [Example 67, (R)-2-Amino-N-[(S)-1-[(6-amino-pyridin-3-ylmethyl)-carbamoyl]-2-(3,4-dichloro-phenyl)-ethyl]-4-phenyl-butyramide] reads 3.1 nM. The result for `Nc1ccc(CNC(=O)[C@H](Cc2ccc(Cl)c(Cl)c2)NC(=O)[C@H](N)CC2CCCCC2)cn1` [Example 68, (R)-2-Amino-N-[(S)-1-[(6-amino-pyridin-3-ylmethyl)-carbamoyl]-2-(3,4-dichloro-phenyl)-ethyl]-3-cyclohexyl-propionamide] reads 9.2 nM; that for `CNCC(=O)N[C@@H](Cc1ccc(Cl)c(Cl)c1)C(=O)NCc1ccc(N)nc1` [Example 69, (S)—N-(6-Amino-pyridin-3-ylmethyl)-3-(3,4-dichloro-phenyl)-2-(2-methylamino-acetylamino)-propionamide], 42.2 nM; that for `Nc1ccc(CNC(=O)[C@H](Cc2cccc(C(F)(F)F)c2)NC(=O)[C@H](N)Cc2ccc(Cl)cc2)cn1` [Example 70, (R)-2-Amino-N-[(S)-1-[(6-amino-pyridin-3-ylmethyl)-carbamoyl]-2-(3-trifluoromethyl-phenyl)-ethyl]-3-(4-chloro-phenyl)-propionamide], 1.1 nM.

As to `Nc1ccc(CNC(=O)[C@H](Cc2ccc(F)c(F)c2)NC(=O)[C@H]2CCCN2)cn1` [Example 72, (R)-Pyrrolidine-2-carboxylic acid [(S)-1-[(6-amino-pyridin-3-ylmethyl)-carbamoyl]-2-(3,4-difluoro-phenyl)-ethyl]-amide], the IC50 is 7.2 nM. `Nc1ccc(CNC(=O)[C@H](Cc2ccc(F)cc2)NC(=O)[C@H]2CCCCN2)cn1` [Example 73, (R)-Piperidine-2-carboxylic acid [(S)-1-[(6-amino-pyridin-3-ylmethyl)-carbamoyl]-2-(4-fluoro-phenyl)-ethyl]-amide] yielded an IC50 of 1.1 nM. `Nc1ccc(CNC(=O)[C@H](Cc2ccc(F)c(F)c2)NC(=O)[C@H]2CCCCN2)cn1` [Example 74, (R)-Piperidine-2-carboxylic acid [(S)-1-[(6-amino-pyridin-3-ylmethyl)-carbamoyl]-2-(3,4-difluoro-phenyl)-ethyl]-amide] returned an IC50 of 1.8 nM. Compared with the last compound, the IC50 is about 1.6-fold higher. The result for `Nc1ccc(CNC(=O)[C@H](Cc2cccc3ccccc23)NC(=O)[C@H]2CCCCN2)cn1` [Example 75, (R)-Piperidine-2-carboxylic acid {(S)-1-[(6-amino-pyridin-3-ylmethyl)-carbamoyl]-2-naphthalen-1-ylethyl}-amide] reads 2.2 nM; that for `Nc1ccc(CNC(=O)[C@H](Cc2ccccc2Cl)NC(=O)[C@H]2CCCCN2)cn1` [Example 76, (R)-Piperidine-2-carboxylic acid [(S)-1-[(6-amino-pyridin-3-ylmethyl)-carbamoyl]-2-(2-chloro-phenyl)-ethyl]-amide], 21.8 nM. The result for `Nc1ccc(CNC(=O)[C@H](Cc2cccc(Cl)c2)NC(=O)[C@H]2CCCCN2)cn1` [Example 77, (R)-Piperidine-2-carboxylic acid [(S)-1-[(6-amino-pyridin-3-ylmethyl)-carbamoyl]-2-(3-chloro-phenyl)-ethyl]-amide] reads 2.9 nM; that for `Nc1ccc(CNC(=O)[C@H](Cc2csc3ccccc23)NC(=O)[C@H]2CCCCN2)cn1` [Example 78, (R)-Piperidine-2-carboxylic acid {(S)-1-[(6-amino-pyridin-3-ylmethyl)-carbamoyl]-2-benzo[b]thiophen-3-yl-ethyl}-amide], 1.2 nM. Under `Nc1ccc(CNC(=O)[C@H](Cc2ccc(F)c(F)c2)NC(=O)[C@H](N)Cc2ccccc2)cn1` [Example 80, (R)-2-Amino-N-[(S)-1-[(6-amino-pyridin-3-ylmethyl)-carbamoyl]-2-(3,4-difluoro-phenyl)-ethyl]-3-phenyl-propionamide] stands 16.1 nM. For `CN[C@H](Cc1ccccc1)C(=O)N[C@@H](Cc1ccc(F)c(F)c1)C(=O)NCc1ccc(N)nc1` [Example 81, (R)—N-[(S)-1-[(6-Amino-pyridin-3-ylmethyl)carbamoyl]-2-(3,4-difluoro-phenyl)-ethyl]-2-methylamino-3-phenyl-propionamide], the IC50 was found to be 5 nM.

With `CCC(C)[C@H](NC)C(=O)N[C@@H](Cc1ccc(F)c(F)c1)C(=O)NCc1ccc(N)nc1` (stereo partly drawn) [Example 82, (S)-3-Methyl-2-methylamino-pentanoic acid [(S)-1-[(6-amino-pyridin-3-ylmethyl)-carbamoyl]-2-(3,4-difluoro-phenyl)-ethyl]-amide], half-maximal inhibition (IC50) required 11.2 nM. The result for `CCC(C)[C@H](N)C(=O)N[C@@H](Cc1ccc(F)c(F)c1)C(=O)NCc1ccc(N)nc1` (stereo partly drawn) [Example 83, (S)-2-Amino-3-methyl-pentanoic acid [(S)-1-[(6-amino-pyridin-3-ylmethyl)-carbamoyl]-2-(3,4-difluoro-phenyl)-ethyl]-amide] reads 158 nM; that for `CN[C@H](C)C(=O)N[C@@H](Cc1ccc(F)c(F)c1)C(=O)NCc1ccc(N)nc1` [Example 84, (R)—N-[(S)-1-[(6-Amino-pyridin-3-ylmethyl)-carbamoyl]-2-(3,4-difluoro-phenyl)-ethyl]-2-methylamino-propionamide], 8 nM. The result for `CN[C@@H](C)C(=O)N[C@@H](Cc1ccc(F)c(F)c1)C(=O)NCc1ccc(N)nc1` [Example 85, (S)—N-[(S)-1-[(6-Amino-pyridin-3-ylmethyl)-carbamoyl]-2-(3,4-difluoro-phenyl)-ethyl]-2-methylamino-propionamide] reads 13.9 nM; that for `CNC(C)(C)C(=O)N[C@@H](Cc1ccc(F)c(F)c1)C(=O)NCc1ccc(N)nc1` [Example 86, N-[(S)-1-[(6-Amino-pyridin-3-ylmethyl)-carbamoyl]-2-(3,4-difluoro-phenyl)-ethyl]-2-methyl-2-methylamino-propionamide], 15.5 nM. The compound `CN[C@H](C)C(=O)N[C@@H](Cc1ccc(F)cc1)C(=O)NCc1ccc(N)nc1` [Example 87, (R)—N-[(S)-1-[(6-Amino-pyridin-3-ylmethyl)-carbamoyl]-2-(4-fluoro-phenyl)-ethyl]-2-methylamino-propionamide] had an IC50 of 6.4 nM. Compared with the last compound, the IC50 is about 2.4-fold lower. The result for `CN[C@@H](C)C(=O)N[C@@H](Cc1ccc(F)cc1)C(=O)NCc1ccc(N)nc1` [Example 88, (S)—N-[(S)-1-[(6-Amino-pyridin-3-ylmethyl)-carbamoyl]-2-(4-fluoro-phenyl)-ethyl]-2-methylamino-propionamide] reads 6.7 nM; that for `CN[C@@H](C(=O)N[C@@H](Cc1ccc(F)cc1)C(=O)NCc1ccc(N)nc1)C(C)C` [Example 89, (R)—N-[(S)-1-[(6-Amino-pyridin-3-ylmethyl)-carbamoyl]-2-(4-fluoro-phenyl)-ethyl]-3-methyl-2-methylamino-butyramide], 11 nM. Consider `CN1CCC[C@@H]1C(=O)N[C@@H](Cc1ccc(Cl)cc1)C(=O)NCc1ccc(N)nc1` [Example 93, (R)-1-Methyl-pyrrolidine-2-carboxylic acid [(S)-1-[(6-amino-pyridin-3-ylmethyl)-carbamoyl]-2-(4-chloro-phenyl)-ethyl]-amide], for which the IC50 worked out at 0.85 nM. As for `CN1CCC[C@@H]1C(=O)N[C@@H](Cc1cc(F)c(F)cc1F)C(=O)NCc1ccc(N)nc1` [Example 94, (R)-1-Methyl-pyrrolidine-2-carboxylic acid [(S)-1-[(6-amino-pyridin-3-ylmethyl)-carbamoyl]-2-(2,4,5-trifluoro-phenyl)-ethyl]-amide], half-maximal inhibition (IC50) required 12.5 nM. Under `CN1CCC[C@@H]1C(=O)N[C@@H](Cc1csc2ccccc12)C(=O)NCc1ccc(N)nc1` [Example 95, (R)-1-Methyl-pyrrolidine-2-carboxylic acid {(S)-1-[(6-amino-pyridin-3-ylmethyl)-carbamoyl]-2-benzo[b]thiophen-3-yl-ethyl}-amide] stands 1.8 nM; under `CN1CCC[C@@H]1C(=O)N[C@@H](Cc1cc(F)cc(F)c1)C(=O)NCc1ccc(N)nc1` [Example 96, (R)-1-Methyl-pyrrolidine-2-carboxylic acid [(S)-1-[(6-amino-pyridin-3-ylmethyl)-carbamoyl]-2-(3,5-difluoro-phenyl)-ethyl]-amide], 5.5 nM; under `CN1CCCC1C(=O)NC(Cc1c(F)c(F)c(F)c(F)c1F)C(=O)NCc1ccc(N)nc1` [Example 97, (R)-1-Methyl-pyrrolidine-2-carboxylic acid {(S)-1-[(6-amino-pyridin-3-ylmethyl)-carbamoyl]-2-pentafluorophenyl-ethyl}-amide], 45.2 nM.

For `CN1CCC[C@@H]1C(=O)N[C@@H](Cc1ccc(F)cc1)C(=O)NCc1ccc(N)nc1` [Example 98, (R)-1-Methyl-pyrrolidine-2-carboxylic acid [(S)-1-[(6-amino-pyridin-3-ylmethyl)-carbamoyl]-2-(4-fluoro-phenyl)-ethyl]-amide], the IC50 came to 1.3 nM. Under `CN1CCC[C@@H]1C(=O)N[C@@H](Cc1cccc(F)c1)C(=O)NCc1ccc(N)nc1` [Example 99, (R)-1-Methyl-pyrrolidine-2-carboxylic acid [(S)-1-[(6-amino-pyridin-3-ylmethyl)-carbamoyl]-2-(3-fluoro-phenyl)-ethyl]-amide] stands 17.1 nM.
